Structures are written as SMILES.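 96-well plates; 48 h exposure; 5 concentrations. Endpoints by linear interpolation between flanking doses. Not reached: highest tested concentration assigned. Abbreviation: GI50, concentration required for 50% inhibition of growth.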 Calls of active or inactive are those of the source. Cut-off read from the data, not from the text of the source: active = GI50 up to about 1.1 µM and inactive = higher. Residues, ends and D or L forms follow the SMILES beside them. *: point of attachment. Boc = CC(C)(C)OC(=O)*; OBn = c1ccc(CO*)cc1; Bn = c1ccc(C*)cc1

These results are taken from ChEMBL document CHEMBL1201862, “PubChem BioAssay data set” (2004).

Some test systems named below: IGROV-1; NCI-H23; SK-MEL-5; MDA-N; T47D; LOX IMVI; OVCAR-8; MCF7; HCT-116; OVCAR-4; CCRF-CEM; DU-145; SNB-19; OVCAR-5; MDA-MB-231; SR; EKVX; U-251; HT-29.
What all share (experiment): NCI-60 cell line screen, 48 h

As to `Cc1c(C#N)c2nnn(-c3ccccc3)c(=O)n2c1-c1ccccc1`, the GI50 with IGROV-1 is 1.48 µM (inactive); in the test with NCI-H23, 5.43 µM (inactive); in the test on SK-MEL-5, 0.471 µM (active); in the test with MDA-N, 0.179 µM (active); with T47D it was 4.18 µM (inactive); in the test with LOX IMVI, 4.12 µM (inactive). Moreover, the GI50 in the test on OVCAR-8 was 7.19 µM (inactive); in the test on MCF7 it was 2.39 µM (inactive); in the test on HCT-116, 0.619 µM (active); in the test on OVCAR-4 it was > 41.5 µM (inactive); in the test on CCRF-CEM, 2.24 µM (inactive); with DU-145, 1.73 µM (inactive). Further, the GI50 in the test with SNB-19 is 3.31 µM (inactive); with OVCAR-5, 1.89 µM (inactive); in the test on MDA-MB-231 it was 12.3 µM (inactive); in the test with SR, 0.863 µM (active); with EKVX, 2.61 µM (inactive).

For `O=C(O)c1ccc(Nc2nc3cc(C(F)(F)F)ccc3n3cccc23)cc1`, the GI50 in the test on IGROV-1 was 29.5 µM (inactive); with NCI-H23, 35.8 µM (inactive); in the test on SK-MEL-5, 17.1 µM (inactive); in the test on MDA-N, 54.6 µM (inactive); in the test with U-251, 21.3 µM (inactive); in the test on T47D it was 17.3 µM (inactive). The GI50 was 10.2 µM (inactive) in the test on LOX IMVI; 49.5 µM (inactive) with OVCAR-8; 35.6 µM (inactive) with MCF7; 23.1 µM (inactive) with HCT-116; 16.5 µM (inactive) with CCRF-CEM; 49.2 µM (inactive) with DU-145. In addition, the GI50 with HT-29 was 10.4 µM (inactive); in the test on SNB-19, 54 µM (inactive); in the test with OVCAR-5, 40.8 µM (inactive); with MDA-MB-231 it was 19.7 µM (inactive); with SR, 14.3 µM (inactive); with EKVX it was 62.4 µM (inactive).

Take `COc1cccc(C2c3cc4c(cc3OC(NNC(N)=O)C2C)OCO4)c1OC` (stereo unspecified): the GI50 in the test with IGROV-1 is 23.7 µM (inactive); in the test on NCI-H23 it was 30.8 µM (inactive); in the test with SK-MEL-5 it was 19.6 µM (inactive); in the test with MDA-N, 18 µM (inactive); with U-251, 20 µM (inactive); with T47D, 27.1 µM (inactive). Further, the GI50 with LOX IMVI is 19.1 µM (inactive); in the test with OVCAR-8 it was 4.32 µM (inactive); in the test with MCF7, 31 µM (inactive); with HCT-116, 14.1 µM (inactive); in the test with CCRF-CEM, 24.7 µM (inactive); with DU-145, 20.9 µM (inactive). The GI50 with HT-29 is 22.4 µM (inactive); in the test on SNB-19 it was 29.1 µM (inactive); with OVCAR-5, 34.1 µM (inactive); in the test with MDA-MB-231, 31.7 µM (inactive); in the test on SR, 0.431 µM (active); in the test on EKVX, 26.7 µM (inactive).

For `COc1cc2c(c(O)c1OC)C(=O)C1CCC(=O)N1C2c1cccc2ccccc12` (stereo unspecified), the GI50 in the test on IGROV-1 is 36.1 µM (inactive); with NCI-H23, 89.7 µM (inactive); with SK-MEL-5, 31.6 µM (inactive); with MDA-N, 40.8 µM (inactive); with U-251 it was 37.4 µM (inactive); in the test with T47D it was 36.6 µM (inactive). The GI50 is 49.1 µM (inactive) with OVCAR-8; 32.5 µM (inactive) in the test on MCF7; 50.5 µM (inactive) with HCT-116; 47.4 µM (inactive) with OVCAR-4; 18.5 µM (inactive) with CCRF-CEM; > 100 µM (inactive) in the test on DU-145. Also, the GI50 was 42.5 µM (inactive) in the test with HT-29; 41.9 µM (inactive) with SNB-19; 94.4 µM (inactive) in the test on OVCAR-5; 23.8 µM (inactive) in the test on MDA-MB-231; 26.5 µM (inactive) in the test with SR; 37.5 µM (inactive) in the test on EKVX.

Take `N#CC1=C(S)N(C2OC(CO)C(O)C(O)C2O)C(c2ccccc2)=CC1c1ccccc1` (stereo unspecified): the GI50 was 46 µM (inactive) with IGROV-1; > 100 µM (inactive) in the test with NCI-H23; 19.8 µM (inactive) in the test with SK-MEL-5; 37.2 µM (inactive) in the test on MDA-N; 43 µM (inactive) in the test with U-251; 18.2 µM (inactive) in the test on T47D. In addition, the GI50 in the test on LOX IMVI is 28.1 µM (inactive); in the test with OVCAR-8, 45.3 µM (inactive); in the test on MCF7 it was 43.1 µM (inactive); in the test on HCT-116, 35.6 µM (inactive); in the test on OVCAR-4, 75.9 µM (inactive); in the test on CCRF-CEM, 37.2 µM (inactive). The GI50 with DU-145 is > 100 µM (inactive); with HT-29 it was 48.9 µM (inactive); with SNB-19, 64.6 µM (inactive); in the test with OVCAR-5, > 100 µM (inactive); in the test with MDA-MB-231 it was 64.3 µM (inactive); in the test on SR, 35 µM (inactive).

Turning to `CN(C)c1ccc(-c2nc(-c3cc4c(ccc5ccccc54)oc3=O)cs2)cc1`, the GI50 in the test with IGROV-1, in the test with SK-MEL-5, in the test on MDA-N, in the test on U-251, with T47D and with LOX IMVI was > 100 µM (inactive) each time. For the same molecule, the GI50 in the test on OVCAR-8, in the test on MCF7, in the test with HCT-116, in the test on OVCAR-4, with CCRF-CEM and with DU-145 was > 100 µM (inactive) each time. The GI50 in the test on HT-29, in the test on SNB-19, in the test on OVCAR-5, in the test on MDA-MB-231, in the test with SR and in the test with EKVX was > 100 µM (inactive) throughout.

`COc1ccc(-n2c(SC(CN3CCOCC3)CN3CCCC3=O)nc3ccccc3c2=O)cc1` (stereo unspecified): the GI50 was > 100 µM (inactive) in the test with IGROV-1; 96.4 µM (inactive) with NCI-H23; > 100 µM (inactive) with SK-MEL-5; > 100 µM (inactive) with MDA-N; > 100 µM (inactive) in the test with U-251; > 100 µM (inactive) in the test with T47D. The GI50 with OVCAR-8 was > 100 µM (inactive); in the test on MCF7, > 100 µM (inactive); in the test with HCT-116, > 100 µM (inactive); with OVCAR-4, 98.6 µM (inactive); in the test on CCRF-CEM, 67.5 µM (inactive); in the test on DU-145 it was > 100 µM (inactive). Besides, the GI50 in the test with HT-29, in the test with SNB-19, in the test on OVCAR-5, with MDA-MB-231, in the test on SR and in the test with EKVX was > 100 µM (inactive) throughout.

Regarding `O=C1CC(O)c2c(Br)sc(Br)c21` (stereo unspecified), the GI50 was 15.9 µM (inactive) in the test on IGROV-1; 22.7 µM (inactive) in the test with NCI-H23; 17.7 µM (inactive) in the test with SK-MEL-5; 8.81 µM (inactive) with MDA-N; 4.54 µM (inactive) with U-251; 9.59 µM (inactive) in the test with T47D. Further, the GI50 in the test with LOX IMVI is 4.48 µM (inactive); in the test on OVCAR-8, 5.01 µM (inactive); in the test with MCF7, 3.46 µM (inactive); with HCT-116, 12.4 µM (inactive); with CCRF-CEM, 0.728 µM (active); in the test with DU-145, 10.4 µM (inactive). In addition, the GI50 in the test on HT-29 is 17.7 µM (inactive); with SNB-19 it was 18.6 µM (inactive); in the test on OVCAR-5, 21.3 µM (inactive); in the test on MDA-MB-231 it was 15.2 µM (inactive); in the test on SR, 5.25 µM (inactive); in the test with EKVX, 10.4 µM (inactive).

Turning to `CCC/C=C/C=C/C(=O)OC1C(C)C2(O)C3C=C(C)C(=O)C3CC(COC(C)=O)=CC2C2C(C)(C)C12OC(=O)C(C)C` (stereo unspecified), the GI50 was 16.8 µM (inactive) with IGROV-1; 12.8 µM (inactive) with NCI-H23; 1.84 µM (inactive) in the test on SK-MEL-5; 0.29 µM (active) in the test on MDA-N; 18.5 µM (inactive) with T47D; 19.7 µM (inactive) in the test with LOX IMVI. The GI50 is 22.8 µM (inactive) with OVCAR-8; 17.2 µM (inactive) in the test on MCF7; 13.8 µM (inactive) in the test with HCT-116; 22.9 µM (inactive) with OVCAR-4; 0.137 µM (active) in the test on CCRF-CEM; 29.6 µM (inactive) with DU-145. Further, the GI50 in the test with HT-29 was 12.1 µM (inactive); with SNB-19 it was 25.7 µM (inactive); with OVCAR-5 it was 26.1 µM (inactive); in the test with MDA-MB-231, 3.92 µM (inactive); in the test on SR, 10.7 µM (inactive); in the test on EKVX, 19.4 µM (inactive).

For `C[C@@H]1C(O)CC[C@H](C)C12CC=CC2=O` (stereo partly specified), the GI50 in the test on IGROV-1, in the test on NCI-H23, in the test with SK-MEL-5, in the test on MDA-N, in the test on U-251 and in the test with T47D was > 100 µM (inactive) each time. The GI50 in the test with LOX IMVI, with MCF7, in the test with HCT-116, in the test on OVCAR-4, in the test with DU-145 and in the test on HT-29 was > 100 µM (inactive) in each case. Moreover, the GI50 in the test with SNB-19, in the test with OVCAR-5, in the test with MDA-MB-231, in the test with SR and with EKVX was > 100 µM (inactive) throughout.

With `CC(C)CC(NC(=O)C(Cc1ccccc1)NC(=O)C(COCc1ccccc1)NC(=O)OC(C)(C)C)C(=O)OCc1ccccc1` (stereo not drawn) (Boc-Ser(Bn)-Phe-Leu-OBn; configuration not given here), the GI50 was 17.4 µM (inactive) in the test with IGROV-1; 18.5 µM (inactive) with NCI-H23; 69 µM (inactive) with MDA-N; 22.3 µM (inactive) in the test with U-251; > 100 µM (inactive) in the test on T47D; 19.8 µM (inactive) with LOX IMVI. Moreover, the GI50 with OVCAR-8 is 18.7 µM (inactive); in the test with MCF7, 37.9 µM (inactive); in the test with HCT-116, 18.5 µM (inactive); in the test with OVCAR-4, 42.7 µM (inactive); with CCRF-CEM it was 26.2 µM (inactive); in the test on DU-145 it was 9.57 µM (inactive). Further, the GI50 is 15.9 µM (inactive) in the test on HT-29; > 100 µM (inactive) in the test on SNB-19; 39.4 µM (inactive) in the test with OVCAR-5; 27.1 µM (inactive) in the test with MDA-MB-231; 20.2 µM (inactive) in the test with SR; 24.8 µM (inactive) with EKVX.
